In patent US20100129470A1, “METHOD OF TREATING BRAIN CANCER” (Myriad Pharmaceuticals, Incorporated, priority 2007, published 2010):
Entries after “also recorded” stand apart in the source; their conditions may differ. Where a name gives a salt, the structure may show the parent alone.

System: Subjects with Refractory Solid Tumors
Experiment: Phase I clinical trial: open-label, dose-escalating, multiple-dose study of weekly intravenous administration
Assay type: in vivo
Conditions: human subjects
Procedure: An open-label, dose-escalating, multiple-dose study to define the safety, tolerability and phamacokinetics of weekly intravenous administration of (4-Methoxy-phenyl)-methyl-(2-methyl-quinazolin-4-yl)-amine hydrochloride was performed. A dosing schedule (each 4 week cycle) was performed for (4-Methoxy-phenyl)-methyl-(2-methyl-quinazolin-4-yl)-amine hydrochloride weekly for 3 weeks with no infusion on the fourth week of each cycle. Subjects with refractory solid tumors were enrolled in cohorts of 3. During Cycle 1, subjects were hospitalized during each infusion of (4-Methoxy-phenyl)-methyl-(2-methyl-quinazolin-4-yl)-amine hydrochloride and remained for observation and safety evaluation for approximately 24 hours following the end of the infusion. All subject had continuous telemetry for 2 hours prior to infusion, for 1-2 hour infusion and for 3 hours after the end of the infusion. Any clinically significant electrocardiographic (ECG) wave form abnormality was recorded and prolongation of the monitoring period extended at the discretion of the principal investigator.
Electrocardiograms were obtrained prior to starting the infusion and within 30 minutes of the end of infusion for each infusino of the first cycle. Electrocardiograms on Day 1 were obtained in triplicate 5 minutes apart.
Neurocognitive assessments were made by administration of the Mini-Mental State Examination (MMSE), the Hopkins Verbal Learning and timed Grooved Pegboard tests before administration of the intravenous infusion and approximately 24 hours of the infusion at each weekly administration of the first cycle.
On days 1, 8, and 15 of each cycle, vital signs were obtained prior to the first dose, at 15, 30, and 60 minutes after the initiation of the infusion, and at 0.5, 1, 1.5, 2, and 4 hours after the end of the intravenous infusion. Vital signs at all time points beyond the start of the intravenous infusion included heart rate, blood pressure and respirations. Temperature ws measured at the end of the infusion and 4 hours later.
Individual subjects were allowed to continue on repeated weekly×3 administrations every 28 days with no dose increase provided there was no unacceptable toxicity or disease progression.
Tumor response was evaluated by response evaluation criteria in solid tumors (RECIST) criteria. To prevent sever hypersensitivity reactions due to Cremophor® EL, subjects were premedicated with oral dexamethasone (20 mg) administered approximately 12 and 6 hours before the intrvenous infusion with (4-Methoxy-phenyl)-methyl-(2-methyl-quinazolin-4-yl)-amine hydrochloride, diphenhydramine (50 mg) or its equivalent administered intravenously 30-60 minutes before (4-Methoxy-phenyl)-methyl-(2-methyl-quinazolin-4-yl)-amine hydrochloride, and cimetidine (300 mg) or ranitidine (50 mg) administered intravenously 30-60 minutes before (4-Methoxy-phenyl)-methyl-(2-methyl-quinazolin-4-yl)-amine hydrochloride.

[1] = weekly i.v. infusion, 0.3-3.3 mg/m^2

COc1ccc(N(C)c2nc(C)nc3ccccc23)cc1 [(4-Methoxy-phenyl)-methyl-(2-methyl-quinazolin-4-yl)-amine hydrochloride]
effects on cardiac conduction (PR, QRS or QTc) (ECG, weekly i.v. infusion, 0.3-3.3 mg/m^2): no significant effects
safety and tolerability (weekly i.v. administration, various dosages, hydrochloride): safe and well tolerated; also recorded: safe and tolerable
peripheral cytotoxicity (weekly i.v. infusion for 3 weeks of each 4 week cycle, 0.3-3.3 mg/m^2): no evidence of cytotoxity peripherally
bradycardia [1]: occasional episodes of bradycardia
dose limiting toxicity [1]: vascular in nature, manifested by an acute coronary syndrome
intratumor bleeding [1]: incidences of intratumor bleeding
systolic blood pressure [1]: dose-related increase
